Reference: PubChem BioAssay AID2305 (GlaxoSmithKline (GSK), 2010)

tested on: P. falciparum 3D7 growth, pLDH absorbance; assay: blood-stage malaria parasite growth potency – strain 3D7, dose response (AID 2305)

Row | SMILES | IC50 [nM]
1 | CCN(CCCN1CCCCC1)c1cc(C)nc(Nc2ccc(Cl)cc2)n1 | 380
2 | CCC/C=C/c1c(CNCCCNc2cc(=O)c3ccccc3[nH]2)sc(CC)c1Br | 890
3 | COc1ccc(-c2cn3c(C(=O)Nc4ccccc4Cl)c(-c4ccccc4)c4c3n2CCCC4)cc1 | 790
4 | Nc1ncc(OC2CCCCC2)c(N)n1 | 1070
5 | CCOC(=O)CCCCCNC[C@H](O)c1ccccc1 | 330
6 | O=C(n1c(-c2cc3ccccc3n2C(=O)C(F)(F)F)cc2ccccc21)C(F)(F)F | 880
7 | CCOc1cc2ncnc(Nc3ccc(OCc4c(F)cccc4F)c(OC)c3)c2cc1OCC | 820
8 | C=CCNC(CCCCC)c1ccc(OCCOc2ccc(C(CCCCC)NCC=C)cc2)cc1 (centres undefined) | 570
9 | O=C(Nc1ccc(-c2nc3ccc(NC(=O)c4ccc(Br)cc4)cc3[nH]2)cc1)c1ccc(Br)cc1 | 790
10 | COc1ccc2nc3cc(Cl)ccc3c(NCCCCNc3c4ccc(Cl)cc4nc4ccc(OC)cc34)c2c1 | 160
11 | Oc1cccc(-c2cnc3ccc(NCc4ccc(F)cc4)nn23)c1 | 1080
12 | COC(=O)C(NC(=O)c1ccc(-c2ccc(-c3nc4ccccc4[nH]3)s2)cc1)c1ccc(O)cc1 (centres undefined) | 740
13 | Cc1ccc(C(=O)Nc2ccc(F)cc2)cc1-c1nc(NC2CC(C)(C)NC(C)(C)C2)nc2c1ccc(=O)n2-c1c(F)cccc1F | 680
14 | N#Cc1ccc(NC2(C(=O)N3CCN(c4cccc(Cl)c4)CC3)CC2)c2ccccc12 | 1150
15 | COc1ccc2nccc(NC(=O)OC3CCC(NCc4ccc5c(n4)NC(=O)CS5)CC3)c2c1 (centres undefined) | 920
16 | COc1cccc(CN2CCC3(CC2)CN(C(=O)Nc2ccc(Cl)c(Cl)c2)C3)c1 | 750
17 | Cc1noc(C)c1-c1cccc(C(=O)NC2CCN(CCNC(=O)C(c3ccccc3)c3ccccc3)CC2)c1 | 1220
18 | O=S(=O)(c1ccccc1Cl)N1CCCCC(c2ccc(C(F)(F)F)cc2)=N1 | 940
19 | CCCCCCNc1c2ccccc2nc2ccccc12 | 950
20 | CCCCOc1cc(CNCCCCCCNCc2cc(OCCCC)cc3ccccc23)c2ccccc2c1 | 740
21 | COc1ccc(CCn2c(=N)c(C(=O)NCc3ccccc3)cc3c(=O)n4cccc(C)c4nc32)cc1 | 340
22 | CCCc1cc(C(=O)N[C@@H](Cc2ccccc2)[C@H](O)CNC2CCOCC2)c(F)c(N2CCCCS2(=O)=O)c1 | 170
23 | CCCNc1nc(NCc2c(C)cccc2C)nc(NC(C)(C)C)n1 | 860
24 | CCOC(=O)c1cc(C(=O)NCCCCN2CCC(c3cn(C)c4ccccc34)CC2)ccc1-c1ccc(C(F)(F)F)cc1 | 1200
25 | CCc1cc(NC2CCN(C)CC2)nc(Nc2ccc(C)cc2)n1 | 690

Row | SMILES | IC50 [nM]
26 | COc1cc2nc(NCCc3ccccc3)nc(NCc3cc(C)no3)c2cc1OC | 240
27 | CC(C)NCc1ccc(-c2ccc(CN3CCCC(c4ccccc4)C3)cc2)c(C(=O)NCC2CCCCC2)c1 (centres undefined) | 720
28 | CN(C(=O)c1cc2c(-c3cncnc3)cccc2[nH]1)c1ccccc1 | 630
29 | COc1ccc2nccc([C@@H](O)CN3CCC(NC(=O)c4cccc(C(=O)c5ccccc5)c4)CC3)c2c1 | 690
30 | Cc1cc(OCCCN2CCCCC2)ccc1NC(=O)COc1ccc(Cl)cc1C(=O)c1cc(C#N)cc(C(F)(F)F)c1 | 1030
31 | CN(C)CCNCc1ncsc1-c1ccc2c(Nc3ccc(F)cc3Cl)ccnc2c1 | 1470
32 | COc1cc(NC(=O)C(c2ccc(Cl)cc2)C(C)C)cc(OC)c1OC (centres undefined) | 530
33 | c1ccc2[nH]c(-c3ccc(-c4ccc(CN5CCCCC5)cc4)cc3)nc2c1 | 750
34 | CC(=O)N(Cc1ccccc1-c1cccc(CNCCc2ccccc2)c1)C1CCN(Cc2ccccc2)CC1 | 1100
35 | CC(C)C1=CC(=NOS(=O)(=O)c2ccccc2)C=C(C(C)C)C1=O | 710
36 | CN(c1ccc(NC(=O)Nc2cc(C(C)(C)C)on2)cc1)c1ccnc(NCCN2CCOCC2)n1 | 1120
37 | COc1ccc(CCN(C)CCOc2ccc(NC(=O)COc3ccc4sc5ccccc5c(=O)c4c3)cc2)cc1OC | 1100
38 | CN(C)c1cccc(NC(=O)N[C@H]2N=C(c3ccccc3)c3ccccc3N(CC(=O)N3CCCC3)C2=O)c1 | 250
39 | CS(=O)(=O)c1ccccc1CNC(=O)c1ccc(-c2ccc(-c3nc4ccc(C(F)(F)F)cc4[nH]3)s2)cc1 | 240
40 | O=C(NCc1cccs1)[C@H](Cc1ccccc1)Nc1ccnc(NCC2CCCCC2)n1 | 1050
41 | CCN(CC)CCNC(=O)c1ccc(NC(=O)c2cc(-c3ccncc3)nc3ccccc23)cc1 | 770
42 | O=C(NCCCCN1CCC(C(c2ccccc2)c2ccccc2)CC1)c1ccc(NC(=O)c2ccc(Cl)cc2)cc1 | 770
43 | COc1ccc(-c2cccc(CNC3CCN(C)CC3)c2)cc1S(=O)(=O)NCc1ccccc1 | 870
44 | CO/C(=C\C=C\c1cc2cc(Cl)c(Cl)cc2[nH]1)C(=O)NCCCN1CCN(c2cccc(OCC(=O)Nc3cccc(C(=O)c4ccccc4)c3)c2)CC1 | 690
45 | c1cc(C2=N[C@H]3CCCC[C@@H]3N2)ccc1OCCCOc1ccc(C2=N[C@@H]3CCCC[C@H]3N2)cc1 | 730
46 | O=C(NCCN1CCCC1)c1ccc(-c2ccc(-c3nc4ccc(C(F)(F)F)cc4[nH]3)s2)cc1 | 750
47 | COc1cccc(NC(=O)CSc2nc(-c3ccccc3Cl)ns2)c1 | 810
48 | COc1ccc(CNC2CCN(C)CC2)cc1-c1ccc(S(=O)(=O)NCc2cccnc2)s1 | 840
49 | CN1CCCc2ccc(NC(=O)C=Cc3ccc(-c4ccc(F)cc4F)o3)cc2C1 | 520
